# Experiments:
# [1] = target: T1, human recombinant C-terminal His-tagged LDHA (Homo sapiens (Human), UniProt P00338); assay: Human LDHA enzyme assay; format: biochemical; conditions: 50 μM pyruvate, 50 μM NADH, 1% DMSO
# Description: Biochemical assays include recombinant human LDH enzymatic assays in which purified recombinant human lactate dehydrogenase A (LDHA) is incubated with test compound, substrate pyruvate and coenzyme […], and its enzymatic activity measured by the formation of NAD upon conversion of pyruvate to lactate.
# (§1) Compounds were dissolved in DMSO and preincubated with human recombinant C-terminal His-tagged LDHA (0.070 μg/mL) for 10 min at room temperature in assay buffer consisting of 50 mM Tris (pH 7.5) and 100 mM NaCl in black walled, clear bottom, non-binding 96-well plates. Equal volumes of substrate solution containing 100 μM of pyruvate and 100 μM of NADH in assay buffer was added to each well (final concentration 0.035 μg/mL enzyme, 50 μM pyruvate, 50 μM NADH, and 1% DMSO). For human serum albumin (HSA) shift assay, the compounds were preincubated with the enzyme in assay buffer containing 20% HSA before substrate addition (final concentration 10% HSA). The reaction was monitored at 340 nm on a plate reader (Molecular Devices) in kinetic mode for 15 min. The rate of the reaction was determined by plotting absorbance vs time.
# [2] = target: T1, human recombinant C-terminal His-tagged LDHA; assay: Human LDHA enzyme assay, human serum albumin (HSA) shift assay; format: biochemical; conditions: final concentration 10% HSA
# Description: as §1
# [3] = Liver-targeted tissue distribution profile study in rats; format: in vivo, rat; conditions: PO 10 mg/kg, SD rats
# Description: Plasma and liver (target organ) concentrations of test compounds were determined in rats following a single per os (PO) administration of the test compounds. Male Sprague Dawley rats (6-8 weeks of age, Charles River Labs) were fasted overnight and a single dose of test compounds (10 mg/kg; as a suspension in 0.5% methyl cellulose) was administered by PO gavage. Rats were then sacrificed at 4 and 24 h after administration of the test compounds, and plasma and liver tissue samples were collected. Liver tissue samples were homogenized in 5 volumes of water:acetonitrile (50/50; v/v) mixture using a bead mill homogenizer. Plasma and liver homogenate samples were processed by protein precipitation using acetonitrile and the concentrations of the test compounds were determined by liquid chromatography-tandem mass spectrometry (SciEx triple quad 5500+ with Exion UPLC).
# [4] = system: primary mouse hepatocytes; assay: Primary mouse hepatocyte assay (lactate production); format: cell-based; conditions: wild type C57BL/6 hepatocytes, in presence of pyruvate
# Description: LDH inhibitors can also be evaluated in an ex vivo assay consisting of primary mouse hepatocytes. Following isolation, viable wild-type murine hepatocytes are incubated with test compound in presence of pyruvate. Compound potency to modulate LDH enzymatic activity is then evaluated by measuring the conversion of pyruvate to lactate by the cells.
# Compounds were evaluated in an ex vivo assay consisting of fresh primary mouse hepatocytes. Hepatocytes were isolated from wild type mice (C57BL/6NCrl from Charles River Labs) using a two-step collagenase perfusion technique which involves a sequential perfusion of anesthetized mice with Hanks' balanced salt solution and collagenase. Following isolation, viable wild type hepatocytes are incubated with test compound in presence of pyruvate and compound potency is evaluated by measuring the lactate produced by the cells using liquid chromatography coupled to mass spectrometry. Chromatographic separation was achieved on an XDB-C18 4.6×50 mm column (Agilent, Cat #927975-902) at a flow rate of 1 mL/min. Mobile phase A consisted of 0.1% formic acid in water and mobile phase B consisted of acetonitrile. A gradient program was initiated starting at 5% B which was held for 1 minutes, then ramped from 5% to 95% B over 1 minute. After holding at 95% B for 1 minute, the program changed back to 5% B. The column was equilibrated with 5% B for 1.5 minutes before the next injection. The mass spectrometer was operated in negative mode with electrospray ionization. The following transition along with their collision energy (CE) were used: 89→43 (CE: −16 V) for lactate and 92→45 (CE: −16 V) for ^13C3-Lactate (internal standard).
# [5] = PH1 patients; cited from earlier work
SMILES,IC50 [1],IC50 [2],Measured Compound Concentration Liver-4 h [3],Measured Compound Concentration Liver-24 h [3],Measured Compound Concentration Plasma-4 h [3],Measured Compound Concentration Plasma-24 h [3],IC50 [4],lowering urinary oxalate [5]
"NS(=O)(=O)c1ccc(Cc2c(-c3ccc(F)c(C#CC4(O)COC4)c3)nn(-c3nc(C(=O)O)cs3)c2CC2CC2)cc1F [Example 1, 2-(5-(Cyclopropylmethyl)-3-(4-fluoro-3-((3-hydroxyoxetan-3-yl)ethynyl)phenyl)-4-(3-fluoro-4-sulfamoylbenzyl)-1H-pyrazol-1-yl)thiazole-4-carboxylic acid]",< 1 nM,1 to 10 nM,+++ (5 μM≥+++>1 μM),++ (1 μM≥++>0.25 μM),+ (0.25 μM≥+>0 μM),+ (0.25 μM≥+>0 μM),< 100 nM,–
"CC(C)(O)C#Cc1cc(-c2nn(-c3nc(C(=O)O)cs3)c(CC3CC3)c2Cc2ccc(S(N)(=O)=O)c(F)c2)ccc1F [Example 2, 2-(5-(Cyclopropylmethyl)-3-(4-fluoro-3-(3-hydroxy-3-methylbut-1-yn-1-yl)phenyl)-4-(3-fluoro-4-sulfamoylbenzyl)-1H-pyrazol-1-yl)thiazole-4-carboxylic acid]",< 1 nM,< 1 nM,+++ (5 μM≥+++>1 μM),+++ (5 μM≥+++>1 μM),+ (0.25 μM≥+>0 μM),+ (0.25 μM≥+>0 μM),< 100 nM,–
"CC1(C#Cc2cc(-c3nn(-c4nc(C(=O)O)cs4)c(CC4CC4)c3Cc3ccc(S(N)(=O)=O)c(F)c3)ccc2F)COC1 [Example 3, 2-(5-(cyclopropylmethyl)-3-(4-fluoro-3-((3-methyloxetan-3-yl)ethynyl)phenyl)-4-(3-fluoro-4-sulfamoylbenzyl)-1H-pyrazol-1-yl)thiazole-4-carboxylic acid]",< 1 nM,1 to 10 nM,–,–,–,–,< 100 nM,–
"CC(C)(O)C#Cc1cccc(-c2nn(-c3nc(C(=O)O)cs3)c(CC3CC3)c2Cc2ccc(S(N)(=O)=O)c(F)c2)c1 [Example 6, 2-(5-(cyclopropylmethyl)-4-(3-fluoro-4-sulfamoylbenzyl)-3-(3-(3-hydroxy-3-methylbut-1-yn-1-yl)phenyl)-1H-pyrazol-1-yl)thiazole-4-carboxylic acid]",< 1 nM,1 to 10 nM,++++ (++++>5 μM),+++ (5 μM≥+++>1 μM),+ (0.25 μM≥+>0 μM),+ (0.25 μM≥+>0 μM),< 100 nM,–
"NS(=O)(=O)c1ccc(Cc2c(-c3cccc(C#CC4COC4)c3)nn(-c3nc(C(=O)O)cs3)c2CC2CC2)cc1F [Example 7, 2-(5-(cyclopropylmethyl)-4-(3-fluoro-4-sulfamoylbenzyl)-3-(3-(oxetan-3-ylethynyl)phenyl)-1H-pyrazol-1-yl)thiazole-4-carboxylic acid]",< 1 nM,1 to 10 nM,++++ (++++>5 μM),+++ (5 μM≥+++>1 μM),+ (0.25 μM≥+>0 μM),+ (0.25 μM≥+>0 μM),< 100 nM,–
"NS(=O)(=O)c1ccc(Cc2c(-c3ccc(F)c(C#CC4CC4)c3)nn(-c3nc(C(=O)O)co3)c2CC2CC2)cc1F [Example 10, 2-(3-(3-(Cyclopropylethynyl)-4-fluorophenyl)-5-(cyclopropylmethyl)-4-(3-fluoro-4-sulfamoylbenzyl)-1H-pyrazol-1-yl)oxazole-4-carboxylic acid]",< 1 nM,1 to 10 nM,–,–,–,–,< 100 nM,–
Cc1ncc(CO)c(CO)c1O [Pyridoxine],–,–,–,–,–,–,–,approximately 30%

# The next lines start with results.
IC50 [1],IC50 [2],Measured Compound Concentration Liver-4 h [3],Measured Compound Concentration Liver-24 h [3],Measured Compound Concentration Plasma-4 h [3],Measured Compound Concentration Plasma-24 h [3],SMILES,IC50 [4],lowering urinary oxalate [5]
< 1 nM,1 to 10 nM,–,–,–,–,"NS(=O)(=O)c1ccc(Cc2c(-c3ccc(F)c(C#CC4(O)CCC4)c3)nn(-c3nc(C(=O)O)cs3)c2CC2CC2)cc1F [Example 4, 2-(5-(cyclopropylmethyl)-3-(4-fluoro-3-((1-hydroxycyclobutyl)ethynyl)phenyl)-4-(3-fluoro-4-sulfamoylbenzyl)-1H-pyrazol-1-yl)thiazole-4-carboxylic acid]",< 100 nM,–
< 1 nM,–,–,–,–,–,"NS(=O)(=O)c1ccc(Cc2c(-c3ccc(F)c(C#CC4(O)CC4)c3)nn(-c3nc(C(=O)O)cs3)c2CC2CC2)cc1F [Example 5, 2-(5-(cyclopropylmethyl)-3-(4-fluoro-3-((1-hydroxycyclopropl)ethynyl)phenyl)-4-(3-fluoro-4-sulfamoylbenzyl)-1H-pyrazol-1-yl)thiazole-4-carboxylic acid]",–,–
< 1 nM,1 to 10 nM,–,–,–,–,"CC1(C#Cc2cccc(-c3nn(-c4nc(C(=O)O)cs4)c(CC4CC4)c3Cc3ccc(S(N)(=O)=O)c(F)c3)c2)COC1 [Example 8, 2-(5-(cyclopropylmethyl)-4-(3-fluoro-4-sulfamoylbenzyl)-3-(3-((3-methyloxetan-3-yl)ethynyl)phenyl)-1H-pyrazol-1-yl)thiazole-4-carboxylic acid]",< 100 nM,–
< 1 nM,1 to 10 nM,+++ (5 μM≥+++>1 μM),++ (1 μM≥++>0.25 μM),+ (0.25 μM≥+>0 μM),+ (0.25 μM≥+>0 μM),"NS(=O)(=O)c1ccc(Cc2c(-c3cccc(C#CC4(O)COC4)c3)nn(-c3nc(C(=O)O)cs3)c2CC2CC2)cc1F [Example 9, 2-(5-(cyclopropylmethyl)-4-(3-fluoro-4-sulfamoylbenzyl)-3-(3-((3-hydroxyoxetan-3-yl)ethynyl)phenyl)-1H-pyrazol-1-yl)thiazole-4-carboxylic acid]",< 100 nM,–

# From patent US20250205203A1, “SUBSTITUTED PYRAZOLYL COMPOUNDS AND METHODS OF USE THEREOF” (Chinook Therapeutics Canada, Inc., priority 2020, published 2025)
